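Cells were grown in 96-well plates and exposed to each compound for 48 hours at five concentrations; endpoints were interpolated linearly between bracketing concentrations, or set to the highest concentration if not reached. GI50 marks 50% less growth. The concentration for full growth arrest is given as TGI.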
Columns and labels:
Assay in all cases: growth of human tumour cells (NCI), 48 h
LOX IMVI melanoma = system: LOX IMVI melanoma
M14 melanoma = system: M14 melanoma
NCI-H522 lung = system: NCI-H522 lung
HCT-15 colon = system: HCT-15 colon
MALME-3M melanoma = system: MALME-3M melanoma
SK-MEL-2 melanoma = system: SK-MEL-2 melanoma
OVCAR-8 ovarian = system: OVCAR-8 ovarian
UO-31 renal = system: UO-31 renal
IGROV1 ovarian = system: IGROV1 ovarian
SW-620 colon = system: SW-620 colon
LXFL 529 NSCLC = system: LXFL 529 NSCLC
KM20L2 colon = system: KM20L2 colon
DMS 273 small cell lung = system: DMS 273 small cell lung
NCI-H460 lung = system: NCI-H460 lung
HT29 colon = system: HT29 colon
RPMI-8226 leukemia = system: RPMI-8226 leukemia
SF-268 CNS = system: SF-268 CNS
KM12 colon = system: KM12 colon
OVCAR-3 ovarian = system: OVCAR-3 ovarian
SK-MEL-28 melanoma = system: SK-MEL-28 melanoma
SF-295 CNS = system: SF-295 CNS
SNB-75 CNS = system: SNB-75 CNS
DLD-1 colon = system: DLD-1 colon
HOP-62 NSCLC = system: HOP-62 NSCLC
ACHN renal = system: ACHN renal
SNB-78 CNS = system: SNB-78 CNS
SF-539 CNS = system: SF-539 CNS
EKVX NSCLC = system: EKVX NSCLC
NCI-H23 lung = system: NCI-H23 lung
HL-60(TB) leukemia = system: HL-60(TB) leukemia
UACC-62 melanoma = system: UACC-62 melanoma
OVCAR-4 ovarian = system: OVCAR-4 ovarian
TK-10 renal = system: TK-10 renal
SK-MEL-5 melanoma = system: SK-MEL-5 melanoma
OVCAR-5 ovarian = system: OVCAR-5 ovarian
SK-OV-3 ovarian = system: SK-OV-3 ovarian
HOP-92 NSCLC = system: HOP-92 NSCLC
SN12C renal = system: SN12C renal
786-0 renal = system: 786-0 renal
CCRF-CEM leukemia = system: CCRF-CEM leukemia
MOLT-4 leukemia = system: MOLT-4 leukemia
U251 CNS = system: U251 CNS
SNB-19 CNS = system: SNB-19 CNS
UACC-257 melanoma = system: UACC-257 melanoma
A549 NSCLC = system: A549 NSCLC
A498 renal = system: A498 renal
K-562 leukemia = system: K-562 leukemia
HCT-116 colon = system: HCT-116 colon
HCC-2998 colon = system: HCC-2998 colon
COLO 205 colon = system: COLO 205 colon

C/C=C/C(=O)[O-].C/C=C/C(=O)[O-].N.N.N.N.[Co+3].[O-][Cl+3]([O-])([O-])[O-]
GI50 (LOX IMVI melanoma): > 100 µM
TGI (LOX IMVI melanoma): > 100 µM
GI50 (M14 melanoma): > 100 µM
TGI (M14 melanoma): > 100 µM
GI50 (NCI-H522 lung): 83.9 µM
TGI (NCI-H522 lung): > 100 µM
GI50 (HCT-15 colon): > 100 µM
TGI (HCT-15 colon): > 100 µM
GI50 (MALME-3M melanoma): > 100 µM
TGI (MALME-3M melanoma): > 100 µM
GI50 (SK-MEL-2 melanoma): > 100 µM
TGI (SK-MEL-2 melanoma): > 100 µM
GI50 (OVCAR-8 ovarian): > 100 µM
TGI (OVCAR-8 ovarian): > 100 µM
GI50 (UO-31 renal): > 100 µM
TGI (UO-31 renal): > 100 µM
GI50 (IGROV1 ovarian): > 100 µM
TGI (IGROV1 ovarian): > 100 µM
GI50 (SW-620 colon): > 100 µM
TGI (SW-620 colon): > 100 µM
GI50 (LXFL 529 NSCLC): > 100 µM
TGI (LXFL 529 NSCLC): > 100 µM
GI50 (KM20L2 colon): > 100 µM
TGI (KM20L2 colon): > 100 µM
GI50 (DMS 273 small cell lung): > 100 µM
TGI (DMS 273 small cell lung): > 100 µM
GI50 (NCI-H460 lung): > 100 µM
TGI (NCI-H460 lung): > 100 µM
GI50 (HT29 colon): > 100 µM
TGI (HT29 colon): > 100 µM
GI50 (RPMI-8226 leukemia): > 100 µM
TGI (RPMI-8226 leukemia): > 100 µM
GI50 (SF-268 CNS): > 100 µM
TGI (SF-268 CNS): > 100 µM
GI50 (KM12 colon): > 100 µM
TGI (KM12 colon): > 100 µM
GI50 (OVCAR-3 ovarian): > 100 µM
TGI (OVCAR-3 ovarian): > 100 µM
GI50 (SK-MEL-28 melanoma): > 100 µM
TGI (SK-MEL-28 melanoma): > 100 µM
GI50 (SF-295 CNS): > 100 µM
TGI (SF-295 CNS): > 100 µM
GI50 (SNB-75 CNS): 47.4 µM
TGI (SNB-75 CNS): > 100 µM
GI50 (DLD-1 colon): > 100 µM
TGI (DLD-1 colon): > 100 µM
GI50 (HOP-62 NSCLC): > 100 µM
TGI (HOP-62 NSCLC): > 100 µM
GI50 (ACHN renal): > 100 µM
TGI (ACHN renal): > 100 µM
GI50 (SNB-78 CNS): > 100 µM
TGI (SNB-78 CNS): > 100 µM
GI50 (SF-539 CNS): > 100 µM
TGI (SF-539 CNS): > 100 µM
GI50 (EKVX NSCLC): > 100 µM
TGI (EKVX NSCLC): > 100 µM
GI50 (NCI-H23 lung): > 100 µM
TGI (NCI-H23 lung): > 100 µM
GI50 (HL-60(TB) leukemia): > 100 µM
TGI (HL-60(TB) leukemia): > 100 µM
GI50 (UACC-62 melanoma): > 100 µM
TGI (UACC-62 melanoma): > 100 µM
GI50 (OVCAR-4 ovarian): > 100 µM
TGI (OVCAR-4 ovarian): > 100 µM
GI50 (TK-10 renal): > 100 µM
TGI (TK-10 renal): > 100 µM
GI50 (SK-MEL-5 melanoma): > 100 µM
TGI (SK-MEL-5 melanoma): > 100 µM
GI50 (OVCAR-5 ovarian): > 100 µM
TGI (OVCAR-5 ovarian): > 100 µM
GI50 (SK-OV-3 ovarian): > 100 µM
TGI (SK-OV-3 ovarian): > 100 µM
GI50 (HOP-92 NSCLC): > 100 µM
TGI (HOP-92 NSCLC): > 100 µM
GI50 (SN12C renal): > 100 µM
TGI (SN12C renal): > 100 µM
GI50 (786-0 renal): > 100 µM
TGI (786-0 renal): > 100 µM
GI50 (CCRF-CEM leukemia): > 100 µM
TGI (CCRF-CEM leukemia): > 100 µM
GI50 (MOLT-4 leukemia): > 100 µM
TGI (MOLT-4 leukemia): > 100 µM
GI50 (U251 CNS): > 100 µM
TGI (U251 CNS): > 100 µM
GI50 (SNB-19 CNS): > 100 µM
TGI (SNB-19 CNS): > 100 µM
GI50 (UACC-257 melanoma): > 100 µM
TGI (UACC-257 melanoma): > 100 µM
GI50 (A549 NSCLC): > 100 µM
TGI (A549 NSCLC): > 100 µM
GI50 (A498 renal): > 100 µM
TGI (A498 renal): > 100 µM
GI50 (K-562 leukemia): > 100 µM
TGI (K-562 leukemia): > 100 µM
GI50 (HCT-116 colon): > 100 µM
TGI (HCT-116 colon): > 100 µM
GI50 (HCC-2998 colon): > 100 µM
TGI (HCC-2998 colon): > 100 µM
GI50 (COLO 205 colon): > 100 µM
TGI (COLO 205 colon): > 100 µM

Reference: PubChem BioAssay (NCI)
